From article PMC6979384, “Characterization of the plant homeodomain (PHD) reader family for their histone tail interactions” (Epigenetics & Chromatin, 2020)

What was measured:
Assay in all cases: Histone peptide microarray
Assay type in all cases: binding, human
Details in all cases: arrays performed twice
[1] = tested on: AIRE (PP)
Procedure, shortened: (§1)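 Each reader, produced as a GST fusion and purified, was tested at 0.5 μM on synthetic histone peptides (293 in total) carrying single or combinatorial marks. Intensities averaged over four replicates.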

[2] = tested on: BAZ2B
Procedure, shortened: as §1

[3] = tested on: BPTF (PB)
Procedure, shortened: as §1

[4] = tested on: CHD4 (PPCC)
Procedure, shortened: as §1

[5] = tested on: CHD5 (PCC)
Procedure, shortened: as §1

[6] = tested on: CHD5 (PPCC)
Procedure, shortened: as §1

[7] = tested on: DIDO1
Procedure, shortened: as §1

[8] = tested on: DPF2 (PPC2W2)
Procedure, shortened: as §1

[9] = tested on: ING1
Procedure, shortened: as §1

[10] = tested on: ING2
Procedure, shortened: as §1

[11] = tested on: ING3
Procedure, shortened: as §1

[12] = tested on: ING4
Procedure, shortened: as §1

[13] = tested on: ING5
Procedure, shortened: as §1

[14] = tested on: KDM4C (TTP)
Procedure, shortened: as §1

[15] = tested on: KDM5A (1)
Procedure, shortened: as §1

[16] = tested on: KDM5A (3)
Procedure, shortened: as §1

[17] = tested on: KDM5B (1)
Procedure, shortened: as §1

[18] = tested on: KDM5B (3)
Procedure, shortened: as §1

[19] = tested on: KDM7A
Procedure, shortened: as §1

[20] = tested on: MLL5
Procedure, shortened: as §1

[21] = tested on: MORC3 (CW)
Procedure, shortened: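 GST-tagged PHD finger readers were expressed, purified and applied at 0.5 μM to a microarray of 293 synthetic histone peptides carrying single or combinatorial PTMs, using an optimized protocol. Binding signals are averages with standard deviation from 4 replicates.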

[22] = tested on: PHF13
Procedure, shortened: as §1

[23] = tested on: PHF21A
Procedure, shortened: as §1

[24] = tested on: PHF23
Procedure, shortened: as §1

[25] = tested on: PHF2
Procedure, shortened: as §1

[26] = tested on: PHF8
Procedure, shortened: as §1

[27] = tested on: PHRF1 (RP)
Procedure, shortened: as §1

[28] = tested on: RAG2
Procedure, shortened: as §1

[29] = tested on: SP140L
Procedure, shortened: as §1

[30] = tested on: TAF3
Procedure, shortened: as §1

[31] = tested on: TRIM66 (PB)
Procedure, shortened: as §1

Substance: H3 (21-44): H3 21-44
- Array Heatmap value (peptide array binding signal) ([1]; AIRE (PP), GST-tagged, n of 4): 0.5101
- Array Heatmap value (peptide array binding signal) ([2]; BAZ2B, GST-tagged, n of 4): 0.4957
- Array Heatmap value (peptide array binding signal) ([3]; BPTF (PB), GST-tagged, n of 4): 0.3717
- Array Heatmap value (peptide array binding signal) ([4]; CHD4 (PPCC), GST-tagged, n of 4): 0.6413
- Array Heatmap value (peptide array binding signal) ([5]; CHD5 (PCC), GST-tagged, n of 4): 0.7773
- Array Heatmap value (peptide array binding signal) ([6]; CHD5 (PPCC), GST-tagged, n of 4): 0.5941
- Array Heatmap value (peptide array binding signal) ([7]; DIDO1, GST-tagged, n of 4): 0.7788
- Array Heatmap value (peptide array binding signal) ([8]; DPF2 (PPC2W2), GST-tagged, n of 4): 0.7579
- Array Heatmap value (peptide array binding signal) ([9]; ING1, GST-tagged, n of 4): 0.59
- Array Heatmap value (peptide array binding signal) ([10]; ING2, GST-tagged, n of 4): 0.6399
- Array Heatmap value (peptide array binding signal) ([11]; ING3, GST-tagged, n of 4): 0.4903
- Array Heatmap value (peptide array binding signal) ([12]; ING4, GST-tagged, n of 4): 0.5057
- Array Heatmap value (peptide array binding signal) ([13]; ING5, GST-tagged, n of 4): 0.397
- Array Heatmap value (peptide array binding signal) ([14]; KDM4C (TTP), GST-tagged, n of 4): 0.5571
- Array Heatmap value (peptide array binding signal) ([15]; KDM5A (1), GST-tagged, n of 4): 0.5113
- Array Heatmap value (peptide array binding signal) ([16]; KDM5A (3), GST-tagged, n of 4): 0.4938
- Array Heatmap value (peptide array binding signal) ([17]; KDM5B (1), GST-tagged, n of 4): 0.6648
- Array Heatmap value (peptide array binding signal) ([18]; KDM5B (3), GST-tagged, n of 4): 0.4825
- Array Heatmap value (peptide array binding signal) ([19]; KDM7A, GST-tagged, n of 4): 0.5232
- Array Heatmap value (peptide array binding signal) ([20]; MLL5, GST-tagged, n of 4): 0.6112
- Array Heatmap value (peptide array binding signal) ([21]; MORC3 (CW), GST-tagged, n of 4): 0.3763
- Array Heatmap value (peptide array binding signal) ([22]; PHF13, GST-tagged, n of 4): 0.6442
- Array Heatmap value (peptide array binding signal) ([23]; PHF21A, GST-tagged, n of 4): 0.4741
- Array Heatmap value (peptide array binding signal) ([24]; PHF23, GST-tagged, n of 4): 0.5869
- Array Heatmap value (peptide array binding signal) ([25]; PHF2, GST-tagged, n of 4): 0.5123
- Array Heatmap value (peptide array binding signal) ([26]; PHF8, GST-tagged, n of 4): 0.4334
- Array Heatmap value (peptide array binding signal) ([27]; PHRF1 (RP), GST-tagged, n of 4): 0.4628
- Array Heatmap value (peptide array binding signal) ([28]; RAG2, GST-tagged, n of 4): 0.2504
- Array Heatmap value (peptide array binding signal) ([29]; SP140L, GST-tagged, n of 4): 0.3812
- Array Heatmap value (peptide array binding signal) ([30]; TAF3, GST-tagged, n of 4): 0.2755
- Array Heatmap value (peptide array binding signal) ([31]; TRIM66 (PB), GST-tagged, n of 4): 0.5647

Substance: H3 (52-61): H3 52-61 (RRYQKSTELL; UniProt P68431 53-62, looked up, fragment)
- Array Heatmap signal, AIRE (PP) ([1]; sheet "Array Heatmap", GST-tagged AIRE (PP), total replicate number n = 4): 0.514
- Array Heatmap signal, BAZ2B ([2]; sheet "Array Heatmap", GST-tagged BAZ2B, total replicate number n = 4): 0.5444
- Array Heatmap signal, BPTF (PB) ([3]; sheet "Array Heatmap", GST-tagged BPTF (PB), total replicate number n = 4): 0.412
- Array Heatmap signal, CHD4 (PPCC) ([4]; sheet "Array Heatmap", GST-tagged CHD4 (PPCC), total replicate number n = 4): 0.678
- Array Heatmap signal, CHD5 (PCC) ([5]; sheet "Array Heatmap", GST-tagged CHD5 (PCC), total replicate number n = 4): 0.8381
- Array Heatmap signal, CHD5 (PPCC) ([6]; sheet "Array Heatmap", GST-tagged CHD5 (PPCC), total replicate number n = 4): 0.6595
- Array Heatmap signal, DIDO1 ([7]; sheet "Array Heatmap", GST-tagged DIDO1, total replicate number n = 4): 0.9
- Array Heatmap signal, DPF2 (PPC2W2) ([8]; sheet "Array Heatmap", GST-tagged DPF2 (PPC2W2), total replicate number n = 4): 0.817
- Array Heatmap signal, ING1 ([9]; sheet "Array Heatmap", GST-tagged ING1, total replicate number n = 4): 0.6486
- Array Heatmap signal, ING2 ([10]; sheet "Array Heatmap", GST-tagged ING2, total replicate number n = 4): 0.6326
- Array Heatmap signal, ING3 ([11]; sheet "Array Heatmap", GST-tagged ING3, total replicate number n = 4): 0.5651
- Array Heatmap signal, ING4 ([12]; sheet "Array Heatmap", GST-tagged ING4, total replicate number n = 4): 0.5513
- Array Heatmap signal, ING5 ([13]; sheet "Array Heatmap", GST-tagged ING5, total replicate number n = 4): 0.4351
- Array Heatmap signal, KDM4C (TTP) ([14]; sheet "Array Heatmap", GST-tagged KDM4C (TTP), total replicate number n = 4): 0.5685
- Array Heatmap signal, KDM5A (1) ([15]; sheet "Array Heatmap", GST-tagged KDM5A (1), total replicate number n = 4): 0.5239
- Array Heatmap signal, KDM5A (3) ([16]; sheet "Array Heatmap", GST-tagged KDM5A (3), total replicate number n = 4): 0.5465
- Array Heatmap signal, KDM5B (1) ([17]; sheet "Array Heatmap", GST-tagged KDM5B (1), total replicate number n = 4): 0.6945
- Array Heatmap signal, KDM5B (3) ([18]; sheet "Array Heatmap", GST-tagged KDM5B (3), total replicate number n = 4): 0.517
- Array Heatmap signal, KDM7A ([19]; sheet "Array Heatmap", GST-tagged KDM7A, total replicate number n = 4): 0.4034
- Array Heatmap signal, MLL5 ([20]; sheet "Array Heatmap", GST-tagged MLL5, total replicate number n = 4): 0.6079
- Array Heatmap signal, MORC3 (CW) ([21]; sheet "Array Heatmap", GST-tagged MORC3 (CW), total replicate number n = 4): 0.4348
- Array Heatmap signal, PHF13 ([22]; sheet "Array Heatmap", GST-tagged PHF13, total replicate number n = 4): 0.7152
- Array Heatmap signal, PHF21A ([23]; sheet "Array Heatmap", GST-tagged PHF21A, total replicate number n = 4): 0.5243
- Array Heatmap signal, PHF23 ([24]; sheet "Array Heatmap", GST-tagged PHF23, total replicate number n = 4): 0.6261
- Array Heatmap signal, PHF2 ([25]; sheet "Array Heatmap", GST-tagged PHF2, total replicate number n = 4): 0.6756
- Array Heatmap signal, PHF8 ([26]; sheet "Array Heatmap", GST-tagged PHF8, total replicate number n = 4): 0.404
- Array Heatmap signal, PHRF1 (RP) ([27]; sheet "Array Heatmap", GST-tagged PHRF1 (RP), total replicate number n = 4): 0.5632
- Array Heatmap signal, RAG2 ([28]; sheet "Array Heatmap", GST-tagged RAG2, total replicate number n = 4): 0.2955
- Array Heatmap signal, SP140L ([29]; sheet "Array Heatmap", GST-tagged SP140L, total replicate number n = 4): 0.4012
- Array Heatmap signal, TAF3 ([30]; sheet "Array Heatmap", GST-tagged TAF3, total replicate number n = 4): 0.3129
- Array Heatmap signal, TRIM66 (PB) ([31]; sheet "Array Heatmap", GST-tagged TRIM66 (PB), total replicate number n = 4): 0.6688
